The source of these data is the OligoGym collection.

Values joined by “and” are separate entries in the source; they are usually repeats but may differ in a detail not shown here. Equal entries are not always repeated. After the bases stand the sugars from the 5' end (letter, count) and the backbone: PS all phosphorothioate, else s phosphorothioate and o phosphodiester by linkage. Methylation of C is not given here. e = 2'-O-(2-methoxyethyl) (MOE); k = constrained ethyl (cEt); d = 2'-deoxy (DNA)

The series addresses IRF4. The settings on record: ASO.

For the sequence CTCATAGGTGTACACG (sugars k3 d10 k3, PS), the target mRNA inhibition (SK-MEL-28, 4 µM) turned out to be 59%.
On the same count and under the same terms, as for CCTCCATTCTAACAGA (sugars k3 d10 k3, PS), the figure is -18%.
For the sequence AGAACATTACGAGAGG (sugars k3 d10 k3, PS), the target mRNA inhibition was 2% and 12% (MM.1R, 0.0625 µM); 16% and 20% (MM.1R, 0.25 µM); 41% and 51% (MM.1R, 1 µM); 65% and 66% (MM.1R, 4 µM).
As for “TGCTTGAGGTTTTCCT (sugars kkddddddddddkeke, PS)”, the target mRNA inhibition (MM.1R, 1 µM) was found to be 33%.
With GTCTGGCTAGCAGAGG (sugars k3 d10 k3, PS), the target mRNA inhibition reads like this: (SK-MEL-28, 0.185 µM) 10%; (SK-MEL-28, 4 µM) 66%; (SK-MEL-28, 5 µM) 68%; (SK-MEL-28, 15 µM) 89%.
For the sequence CTGCTGCCCAATACAT (sugars k3 d10 k3, PS), the target mRNA inhibition (SK-MEL-28, 4 µM) amounted to 47%.
Still for that read-out and setting: as for AGCAAAGCAAGTGTCT (sugars k3 d10 k3, PS), the figure is 58%.
On the same count and under the same terms, as for AGCCAAGGAGGCGGGC (sugars k3 d10 k3, PS), the figure is -1%.
On to GTAGAGTGAGATGCGG (sugars k3 d10 k3, PS), for which the target mRNA inhibition was -4% (MM.1R, 0.0625 µM); 16% (MM.1R, 0.25 µM); 51% and 40% (MM.1R, 1 µM); 70% (MM.1R, 4 µM).
As to TCCTCCTCGCGGTTGT (sugars k3 d10 k3, PS), the target mRNA inhibition (SK-MEL-28, 4 µM) is 59%.
Take CCTCATTCACAACTAG (sugars k3 d10 k3, PS): for the setting “MM.1R, 1 µM”, the target mRNA inhibition was 5%.
On to ACACAAGTGGCCTTCC (sugars k3 d10 k3, PS), for which the target mRNA inhibition (SK-MEL-28, 4 µM) was determined as 31%.
In the case of “ACCTCAGTTTGTGAAG (sugars k2 d9 e3 k2, PS)”, for the setting “MM.1R, 1 µM”, the target mRNA inhibition stood at 4%.
On the same count and under the same terms, as for CGAAAAGACTGGAGTG (sugars k3 d10 k3, PS), the figure is 26%.
Regarding CCAGGAAACCGCTGGC (sugars k3 d10 k3, PS), the target mRNA inhibition (SK-MEL-28, 4 µM) is 38%.
For the sequence “GTGATGTCAGGTTTTC (sugars kkdddddddddekeke, PS)”, the target mRNA inhibition by setting is: (MM.1R, 0.074 µM) 14%; (MM.1R, 0.222 µM) 16%; (MM.1R, 0.666 µM) 30%; (MM.1R, 1 µM) 58%; (MM.1R, 2 µM) 59%.
In the case of GGTCACAGGTAAGGGC (sugars k3 d10 k3, PS), the target mRNA inhibition (SK-MEL-28, 4 µM) turned out to be 25%.
The same measure, in the same setting: as for TCCCAGAGTTGTTCCA (sugars k3 d10 k3, PS), the figure is 26%.
Still for that read-out and setting: as for TGAATAGAGGAATGGC (sugars k3 d10 k3, PS), the figure is 21%.
As to “AGCTTGATAAAGGCTG (sugars kkkdddddddddkeke, PS)”, for the setting “MM.1R, 1 µM”, the target mRNA inhibition was -8%.
With GAGGACCACGCCCCTC (sugars k3 d10 k3, PS), for the setting “SK-MEL-28, 4 µM”, the target mRNA inhibition is -3%.
Still for that read-out and setting: as for CTTGGTCAATTTTCAC (sugars k3 d10 k3, PS), the figure is 53%.
Turning to TTCTAGCTAACTTACA (sugars k3 d10 k3, PS), the target mRNA inhibition (MM.1R, 1 µM) is -18%.
As to CTTTGAAGTGCTGTGT (sugars k3 d10 k3, PS), the target mRNA inhibition (SK-MEL-28, 4 µM) worked out at 16%.
Still for that read-out and setting: as for CCACATTAGCAATTAG (sugars k3 d10 k3, PS), the figure is 19%.
On the same count and under the same terms, then GAGGTAAATCTTCACT (sugars k3 d10 k3, PS), with 70%.
As for “GTGATGTCAGGTTTTC (sugars kkkddddddddkekek, PS)”, the target mRNA inhibition (MM.1R, 0.074 µM) stood at 14%; the target mRNA inhibition (MM.1R, 0.222 µM) was found to be 35%; the target mRNA inhibition (MM.1R, 0.666 µM) turned out to be 54%; the target mRNA inhibition (MM.1R, 1 µM) was 57%; the target mRNA inhibition (MM.1R, 2 µM) worked out at 77%.
On to AGAGGCGACTGCTGAA (sugars k3 d10 k3, PS), for which the target mRNA inhibition (MM.1R, 1 µM) is -19%.
For GACCTTTACTTCATTC (sugars k3 d10 k3, PS), the target mRNA inhibition (SK-MEL-28, 4 µM) was 52%.
Same read-out and setting: then CACGAGGCACCGCACT (sugars k3 d10 k3, PS), with -13%; and ACCATTACTTAGACAT (sugars k3 d10 k3, PS), with 65%.
Same read-out and setting: then TTCGAGGTGATTCTCG (sugars k3 d10 k3, PS), with 5%; and TGGTAATCTTCTGGAT (sugars k3 d10 k3, PS), with 24%; and TAATAATGCTTGCAAG (sugars k3 d10 k3, PS), with 12%.
Same read-out and setting: then CCAATACATATCCATG (sugars k3 d10 k3, PS), with 60%.
On to TAAAATGTCACGCCCG (sugars k3 d10 k3, PS), for which the target mRNA inhibition (MM.1R, 1 µM) was found to be 0%.
With GCAATGAACGGAAGTT (sugars k3 d10 k3, PS), the target mRNA inhibition (SK-MEL-28, 4 µM) worked out at 45%.
As for “AGCATTTTATCATCCG (sugars kkdddddddddekeke, PS)”, the target mRNA inhibition (MM.1R, 1 µM) came out at 46%.
Still for that read-out and setting: then GCCGAAGTCAACAGGA (sugars k3 d10 k3, PS), with -17%.
As for ACTCATAGGTGTACAC (sugars k3 d10 k3, PS), under “SK-MEL-28, 4 µM”, the target mRNA inhibition is 45%.
Consider “GCATTTTATCATCCGA (sugars kddddddddddkekek, PS)”, for which the target mRNA inhibition (MM.1R, 1 µM) was determined as 21%.
Consider AACCAGCACAGTTCTC (sugars k3 d10 k3, PS), for which the target mRNA inhibition (SK-MEL-28, 4 µM) is -18%.
The same measure, in the same setting: then CCCTTATTAGACTGAC (sugars k3 d10 k3, PS), with 67%; and AAGCAAGTGTCTAAAG (sugars k3 d10 k3, PS), with 29%; and AGTAAGAGGGCAGTCA (sugars k3 d10 k3, PS), with 50%.
As to AACGACTCCACAGAGC (sugars k3 d10 k3, PS), the target mRNA inhibition (MM.1R, 1 µM) worked out at 4%.
On the same count and under the same terms, then “AGCATTTTATCATCCG (sugars kddddddddddkekek, PS)”, with 36%; and “AAGCATTTTATCATCC (sugars kkddddddddddkeke, PS)”, with 20%.
Consider CTCAGCAAGTGTCTTC (sugars k3 d10 k3, PS), for which the target mRNA inhibition (SK-MEL-28, 4 µM) came to 45%.
For AAGCCTAGAGGTGCCT (sugars k3 d10 k3, PS), the target mRNA inhibition (MM.1R, 1 µM) was determined as 29%.
Regarding AATTTTCACAGTGATC (sugars k3 d10 k3, PS), the target mRNA inhibition (SK-MEL-28, 4 µM) came to 34%.
For the sequence “TACTGCTTGAGGTTTT (sugars kkdddddddddekeke, PS)”, where the note is “MM.1R, 1 µM”, the target mRNA inhibition came to 18%.
Take ACCTGGCAACCATTTT (sugars k4 d8 k4, PS): the target mRNA inhibition (SK-MEL-28, 4 µM) was 19%.
Regarding AAGTGTCTAAAGTCCC (sugars k3 d10 k3, PS), under “MM.1R, 1 µM”, the target mRNA inhibition is 50% and 41%.
In the case of TTCCATAGAGCCAGAG (sugars k3 d10 k3, PS), for the setting “SK-MEL-28, 4 µM”, the target mRNA inhibition was found to be 37%.
Turning to TAGTTGTCTGGCTAGC (sugars k3 d10 k3, PS), the target mRNA inhibition runs as follows: (MM.1R, 0.0625 µM) 4% and 7%; (MM.1R, 0.25 µM) 16% and 24%; (MM.1R, 1 µM) 32% and 33%; (MM.1R, 4 µM) 68%.
Consider CAGCATGAGCTCGGTC (sugars k3 d10 k3, PS), for which the target mRNA inhibition (MM.1R, 1 µM) was found to be 22%.
Turning to GACTTAACCCACATCA (sugars k3 d10 k3, PS), the target mRNA inhibition (SK-MEL-28, 4 µM) was -166%.
The same measure, in the same setting: then AGCTTAGTCACCACGG (sugars k3 d10 k3, PS), with 67%; and ACCAACGACAGCATAG (sugars k3 d10 k3, PS), with 67%; and ATAGTAGGTAAGATCT (sugars k3 d10 k3, PS), with -13%.
For the sequence CCGTCCGCGCCCGCGC (sugars k3 d10 k3, PS), under “SK-MEL-28, 4 µM”, the target mRNA inhibition was determined as 61%.
On the same count and under the same terms, then CATGAAATCCAAGGTA (sugars k3 d10 k3, PS), with 49%.
With “ACACTTTTAGAGAGGA (sugars kkkddddddddkekek, PS)”, the target mRNA inhibition (MM.1R, 1 µM) turned out to be 15%.
Consider TTACATCCTAGAACAC (sugars k3 d10 k3, PS), for which, where the note is “SK-MEL-28, 4 µM”, the target mRNA inhibition was 3%.
GCAAGCTATATTAAAG (sugars k3 d10 k3, PS): the target mRNA inhibition was 1% (MM.1R, 0.0625 µM); 17% (MM.1R, 0.074 µM); 26% (MM.1R, 0.222 µM); 1% (MM.1R, 0.25 µM); 41% (MM.1R, 0.666 µM); -19% (MM.1R, 1 µM). The target mRNA inhibition by setting is: (MM.1R, 2 µM) 82%; (MM.1R, 4 µM) 1%; (SK-MEL-28, 4 µM) 71%.
As to ATAACGGTGTTTCAGA (sugars k3 d10 k3, PS), the target mRNA inhibition (SK-MEL-28, 4 µM) worked out at 47%.
On to CAAAAACTTGGGTCAC (sugars k3 d10 k3, PS), for which the target mRNA inhibition (SK-MEL-28, 4 µM) was found to be 20%.
Still for that read-out and setting: then TTGTCCTCTGGGTAGG (sugars k3 d10 k3, PS), with 30%.
ATGGAACAGTAACTTG (sugars k3 d10 k3, PS): the target mRNA inhibition (MM.1R, 1 µM) worked out at 3%.
Turning to AATGTCCACTGTTTTG (sugars k3 d10 k3, PS), where the note is “SK-MEL-28, 4 µM”, the target mRNA inhibition came out at 47%.
As to “ACTGCTTGAGGTTTTC (sugars k3 d9 k3 e1, PS)”, the target mRNA inhibition (MM.1R, 1 µM) was determined as 52%.
As to TTTATAGTAGGTAAGA (sugars k3 d10 k3, PS), the target mRNA inhibition (SK-MEL-28, 4 µM) was determined as 6%.
Same read-out and setting: as for AGAGTGGTACACCTCT (sugars k3 d10 k3, PS), the figure is 22%.
For the sequence “GTGTGCTTGCCAAGCC (sugars kkdddddddddekeke, PS)”, the target mRNA inhibition (MM.1R, 1 µM) is 17% and 19%.
For GGAAAGACAAGTGCCC (sugars k3 d10 k3, PS), under “SK-MEL-28, 4 µM”, the target mRNA inhibition was determined as 54%.
Same read-out and setting: then ATGAGTCGGTCACTTG (sugars k3 d10 k3, PS), with 78% and 72%; and CTAAATTCTAGTTTGC (sugars k3 d10 k3, PS), with 21%.
On to CGAAGAATTTTAGCAT (sugars k3 d10 k3, PS), for which the target mRNA inhibition (SK-MEL-28, 4 µM) stood at 58%.
For the sequence ACCAATTTATGCCATG (sugars k3 d10 k3, PS), for the setting “SK-MEL-28, 4 µM”, the target mRNA inhibition was determined as 17%.
The same measure, in the same setting: as for AACCATTACTTAGACA (sugars k3 d10 k3, PS), the figure is 45%; as for TCTGTAGGGCGACTAA (sugars k3 d10 k3, PS), 65%; as for TTCCTGTAACAGGCTA (sugars k3 d10 k3, PS), 63% and 77%.
